Measured values reported in publication PMC11266932, “Enhanced absorption of prenylated cinnamic acid derivatives from Brazilian green propolis by turmeric in humans and rats” (Food Science & Nutrition, 2024).

Target: T1, BCRP (Homo sapiens, UniProt Q9UNQ0)
T1 construct: host or cells: MDCK II (Madin-Darby canine kidney) cells overexpressing BCRP
T1 sequence (Q9UNQ0 1-655): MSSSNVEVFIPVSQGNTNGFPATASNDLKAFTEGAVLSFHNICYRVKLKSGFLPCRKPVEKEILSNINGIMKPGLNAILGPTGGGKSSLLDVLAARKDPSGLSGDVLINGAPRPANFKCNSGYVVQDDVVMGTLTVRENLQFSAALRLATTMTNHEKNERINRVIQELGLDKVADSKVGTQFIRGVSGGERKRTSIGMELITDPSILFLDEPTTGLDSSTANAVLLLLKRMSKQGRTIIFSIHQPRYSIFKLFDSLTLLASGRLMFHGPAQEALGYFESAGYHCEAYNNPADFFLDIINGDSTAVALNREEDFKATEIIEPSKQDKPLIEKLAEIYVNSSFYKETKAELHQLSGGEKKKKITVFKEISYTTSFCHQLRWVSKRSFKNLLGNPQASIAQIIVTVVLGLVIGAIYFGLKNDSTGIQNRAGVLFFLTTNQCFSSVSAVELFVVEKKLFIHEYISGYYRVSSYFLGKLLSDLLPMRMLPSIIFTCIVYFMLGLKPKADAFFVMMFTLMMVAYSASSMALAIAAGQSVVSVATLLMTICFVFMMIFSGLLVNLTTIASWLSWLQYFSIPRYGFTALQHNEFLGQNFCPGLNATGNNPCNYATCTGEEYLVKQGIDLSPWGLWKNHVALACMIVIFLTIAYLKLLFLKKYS
Assay: Bidirectional transport assay across MDCK II-BCRP cell monolayer
Format: in vitro ADME
Details: dog, pH 7.4
Procedure: The Madin‐Darby canine kidney (MDCK II) cell line and MDCK II cells overexpressing multidrug resistance 1 (MDR1) or breast cancer resistance protein (BCRP) were purchased from the Netherlands Cancer Institute (Amsterdam, Netherlands) and SOLVO Biotechnology (Szeged, Hungary), respectively. The cell lines were routinely cultured in Dulbecco's modified Eagle's medium (DMEM) containing 10% fetal bovine serum and 1% penicillin/streptomycin at 37°C in 5% CO2. All cells were seeded in a feeder tray at a density of 3–6 × 10^4 cells/well and grown for 3–4 days. On the day of the transport study, cell monolayers were washed with Hanks' balanced salt solution (HBSS) buffer containing 0.1% BSA (pH 7.4) and incubated at 37°C for 20 min. Artepillin C and drupanin dissolved in DMSO (10 mM) were added to the transport buffer (HBSS containing 10 mM HEPES, 0.2% glucose, 0.1% BSA, pH 7.4) to a final concentration of 10 μM and then loaded into the apical or basolateral chamber. After 120 min of incubation, 150 μL of the aliquots were collected from the donor and receiver chambers and mixed with an equal volume of 50% methanol. After centrifugation at 3000 rpm for 10 min at 4°C, the supernatants were filtered and subjected to LC–MS/MS analysis.
The in vitro samples were analyzed using HPLC (LC‐20A, Shimadzu, Kyoto, Japan) with a reversed‐phase column (Inertsil ODS‐3, 2.1 × 33 mm, ID. 3 μm, GL Sciences, Tokyo, Japan) held at 40°C. The mobile solvents used were water with 10 mM ammonium acetate (pH 4.0, A) and methanol (B) pumped at a flow rate of 0.4 mL/min. The following gradient was employed: 10%–90% B (0–0.5 min), 90% B (0.5–2.5 min), and 10% B (2.5–4 min). The eluent was monitored using a triple quadrupole mass spectrometer (API 4000, AB Sciex, Framingham, MA, USA) incorporating an electrospray ion source (ESI) operating in the multiple reaction monitoring mode. The ESI source was operated in negative ionization mode at 600°C with a spray voltage of −4.5 kV. The curtain gas (nitrogen), collision gas (nitrogen), nebulizer gas (whole air), and drying gas (whole air) were set at 40, 5, 50, and 70 psi, respectively. […] Artepillin C and drupanin were diluted in 50% methanol to concentrations of 1.6, 3.2, 8, 40, 200, 1000, and 2000 nM and were used as external standards. Sulfaphenazole (0.2 μM) was used as an internal standard.
The apparent permeability coefficients (Papp) for both directions, from the apical side to the basolateral side (A to B) and from the basolateral side to the apical side (B to A) in the cell monolayer, were calculated using the following equation: (1) Papp=dQ/dt/A×C0 where dQ/dt is the permeation rate (nmol/s), A is the membrane area (cm^2), and C0 is the initial concentration of the compound in the donor compartment (nM). The efflux ratios (ER) in the B‐to‐A and A‐to‐B directions were determined using the following equation: (2) ER=PappBtoA/PappAtoB
Net flux ratios were calculated by dividing the ER obtained from MDCK II‐MDR1 (or BCRP) cells by that obtained from the parent MDCK II cells.

[1] = 10 μM, 120 min, mean ± SE, n = 2

CC(C)=CCc1cc(/C=C/C(=O)O)ccc1O [drupanin]
Papp A→B at 120 min, 10 μM [1]: 1.3 ± 0.1 ×10⁻⁶ cm/s
Papp B→A at 120 min, 10 μM [1]: 20.9 ± 0.1 ×10⁻⁶ cm/s
efflux ratio at 120 min, 10 μM (read-out: Flux ratio (MDCK II‐BCRP) (efflux ratio, ER)): 15.7
